Test results as given in patent publication US20240228493A1, “LRRK2 INHIBITORS AND USES THEREOF” (NEURON23, ICN., priority 2022, published 2024).

Columns and labels:
[1] = molecular target: T1, wt human LRRK2, catalytic site (Homo sapiens, UniProt Q5S007); experiment: TR-FRET LanthaScreen Tb Kinase Activity Assay, LRRK2 inhibition; assay type: biochemical; details: 2 nM wt human LRRK2, 400 nM peptide, 38 μM ATP
T1 construct: wt human LRRK2, catalytic site, catalytic site (ThermoFisher/USA); purchased ThermoFisher
Procedure: The compounds disclosed herein were tested for their inhibitory effect on LRRK2 kinase according to the following procedures.
The protocol for basic TR-FRET LanthaScreen Tb Kinase Activity Assay inhibitor studies were as follows. LanthaScreen Kinase Activity Assays (ThermoFisher/USA) to evaluate inhibitors were performed by addition of 100 nL of test compound in corresponding DMSO dilutions/5 μL of kinase/fluorescein-ERM (LRRKtide) peptide mixture, Compound & kinase were pre-incubated for 15 minutes, then 5 μl of ATP into 384 well small volume plates. After incubation for 120 minutes at room temperature, the detection reagents containing Tb-anti-pLRRKtide antibody were added to monitor phosphorylation level of peptide. Then, after 60 min minutes incubation at room temperature plates were read in Envision. Data analysis of emission ratios was according to LanthaScreen Tb Kinase Activity Assay protocol.
Kinase and assay components were adjusted to final concentrations according to the kit protocol. For LRRK2: 2 nM wt human LRRK2, catalytic site, catalytic site (ThermoFisher/USA), 400 nM peptide, 38 μM ATP in 1× Kinase Buffer A. […]
Kinase and assay components were adjusted to final concentrations according to the kit protocol.

[2] = system: human hepatocyte; experiment: Human hepatocyte stability, predicted hepatic clearance (h-Hept CL predict); assay type: in vitro ADME; details: human hepatocytes, 0.5×10^6 cells/mL, 1 μM, values without asterisk
Procedure: The compounds disclosed herein were tested in vitro on human hepatocyte for in vitro h-Hept CL predict according to the following procedures. • 1. Compound sock solutions were prepared by dissolving test compound and positive control in dimethyl sulfoxide (DMSO) at a concentration of 10 mM. Stock solutions were then diluted to 100 μM solutions by combining 198 μL of 50% acetonitrile/50% water with 2 μL of the 10 mM stock in separate conical tubes. • 2. Cryopreserved hepatocytes were prepared as follows: Incubation medium (William's E Medium supplemented with GlutaMAX) and hepatocyte thawing medium were placed in a 37° C. water bath and allowed to warm for at least 15 minutes prior to use. Cryopreserved hepatocytes were removed from storage, ensuring that vials remained at cryogenic temperatures until thawed. Cells were thawed by placing the vials in a 37° C. water bath and gently shaking the vials for 2 minutes. After thawing was completed, vials were sprayed with 70% ethanol and transferred to a biosafety cabinet. Hepatocytes were transferred into 50 mL conical tube containing thawing medium using wide-bore pipette tips. Tubes were placed into a centrifuge and spun at 100 g for 10 minutes. Then thawing medium was aspirated and hepatocytes were resuspended in enough incubation medium to yield ˜1.5×10^6 cells/mL. Cells were counted using acridine orange and propidium iodide (AO/PI) staining, and the viable cell density was determined. Cells were diluted with incubation medium to a working cell density of 0.5×10^6 viable cells/mL. • 3. To determine hepatocyte stability, 198 μL of hepatocytes were transferred into each well of a 96-well non-coated plate. Plates were placed in an incubator to allow the hepatocytes to warm for 10 minutes. • 4. The reaction was started by transferring 2 μL of the 100 μM test compound or positive control solution into respective wells of the 96-well non-coated plates. Plates were returned to the incubator until 25 μL aliquots of well contents were sampled at time points of 0, 15, 30, 60, 90 and 120 minutes. The aliquots were then mixed with 6 volumes (150 μL) of acetonitrile containing internal standard, IS (100 nM alprazolam, 200 nM caffeine and 100 nM tolbutamide) to terminate the reaction and vortexed for 5 minutes. After centrifuging the samples for 45 minutes at 3,220 g, aliquots of 100 μL of the supernatant were taken and diluted with 100 μL of ultra-pure water. The mixture was used for LC/MS/MS analysis. All incubations were performed in duplicate.
All calculations were carried out using Microsoft Excel. Peak area ratios (PAR) were determined from extracted ion chromatograms. The in vitro half-life (t1/2) of parent compound was determined by regression analysis of the percent parent disappearance vs. time curve as follows:
Conversion of the in vitro t1/2 (in minutes) into the in vitro intrinsic clearance (in vitro CLint, in μL/min/1×10^6 cells) was done using the following equation (mean of duplicate determinations): […]
The scaled-up intrinsic clearance (CLint, mL/min/kg), predicted hepatic clearance (CLH, mL/min/kg) and hepatic extraction ratio (ER) were calculated using the following equations:
CLint=(0.693/t1/2)*(1/(hepatocyte concentration (0.5*10^6 cells/mL)))*scaling factors (Table (A) Appendix Table 1)
CLHept-predict=(QH*Scaled-up CLint*fub)/(QH+Scaled-up CLint*fub)
ER=CLH/QH • Where: • V=incubation volume (0.2 mL) • N=number of hepatocytes per well (0.1*10^6 cells) • QH=hepatic blood flow (mL/min/kg) (Table (A) Appendix Table 1) • fub=fraction of unbound drug in plasma, assumed to be 1

[3] = system: Caco-2 cells; experiment: Caco-2 bidirectional permeability; assay type: in vitro ADME; details: for Caco-2 ER: Efflux Ratio=Papp(BA)/Papp(AB); for Caco-2 A2B (10^−6 cm/s): apical to basolateral; for Caco-2 A2B (10^−6 cm/s) / Caco-2 B2A (10^−6 cm/s): 2 hours, pH 7.4; for Caco-2 B2A (10^−6 cm/s): basolateral to apical
Procedure: The compounds disclosed herein were tested in vitro on CaCo2 cell penetration according to the following procedures.
Caco-2 cells purchased from ATCC were seeded onto […] (PET) in 96-well Corning Insert plates at 1×10^5 cells/cm^2. The media were refreshed every 4 to 5 days until the 21st to 28th day for confluent cell monolayer formation.
Experiments were run in duplicate using a HBSS transport buffer containing 10 mM HEPES at pH 7.4. The test article TEST COMPOUND was tested bi-directionally at […] concentrations, the control compound digoxin was tested bi-directionally at 10 μM, and nadolol and metoprolol were tested at 2.0 μM in the A to B direction. Final DMSO concentrations were adjusted to less than 1%. The plates were incubated for 2 hours in a CO2 incubator at 37±1° C. with 5% CO2 at saturated humidity without shaking. Following incubation, samples were mixed with acetonitrile containing internal standard and centrifuged at 3200×g for 10 minutes. Then 200 μL of supernatant was taken from all samples. For TEST COMPOUND and digoxin, the supernatant was diluted with 200 μL of ultra-pure water and for nadolol and metoprolol, the supernatant was diluted with 600 μL of ultra-pure water. All samples were analyzed by LC-MS/MS. Concentrations of TEST COMPOUND and control compounds were determined in starting solutions, donor well solutions, and receiver well solutions using peak area ratios (PAR) of analyte to internal standard. After the transport assay, a lucifer yellow rejection assay was run to determine the Caco-2 cell monolayer integrity.
The apparent permeability (Papp), the % recovery and the efflux ratio were calculated as follows:
Papp=(dCr/dt)×Vr/(A×C0) 1.
Efflux Ratio=Papp(BA)/Papp(AB) 3. • Where: • dCr/dt is the slope of the cumulative concentration in the receiver compartment versus time (mM/s). • Vr and Vd is the volume in the receiver and donor compartments (0.075 mL on the apical side, 0.25 mL on the basolateral side), respectively. • A is the surface area of the cell monolayer (0.0804 cm^2). • C0 is the measured donor concentrations (μM) at the beginning of the experiment. • Cd and Cr are the final measured concentrations in the donor and receiver compartments, respectively.

T1 sequence (Q5S007 1879-2138 limits assumed): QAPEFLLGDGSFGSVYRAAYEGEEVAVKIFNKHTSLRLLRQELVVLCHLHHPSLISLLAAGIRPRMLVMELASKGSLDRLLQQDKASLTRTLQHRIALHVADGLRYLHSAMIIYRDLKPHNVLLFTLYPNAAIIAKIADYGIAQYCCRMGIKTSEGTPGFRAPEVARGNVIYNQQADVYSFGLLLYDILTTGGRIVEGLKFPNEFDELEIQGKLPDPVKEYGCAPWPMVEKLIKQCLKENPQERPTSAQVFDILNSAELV

Row | Structure (SMILES) | IC50 [1] | hHep Cl (mL/min/kg) [2] | Caco-2 ER [3] | Caco-2 A2B (10^−6 cm/s) [3] | Caco-2 B2A (10^−6 cm/s) [3]
1 | COC[C@H]1CN(c2cc3c(cn2)NC(c2c(F)cccc2F)=Nc2c(C)n[nH]c2-3)CCO1 [Example 15, (2R)-4-[8-(2,6-difluorophenyl)-5-methyl-3,4,7,9,12-pentazatricyclo[8.4.0.02,6]tetradeca-1(10),2(6),4,7,11,13-hexaen-13-y1]-2-(methoxymethyl)morpholine] | 1 to 100 nM | L (L (Low Cl)”: Hep Cl (mL/min/kg)<6.3) | L (L (Likely)”: ER≥2.5) | M (M (Moderate permeability)”: 1≤A2B (B2A)≤5) | H (H (High permeability)”: A2B (B2A)>5)
2 | COC[C@@H]1CN(c2cc3c(cn2)NC(c2c(F)cccc2F)=Nc2c(C)n[nH]c2-3)CCO1 [Example 16, (2S)-4-[8-(2,6-difluorophenyl)-5-methyl-3,4,7,9,12-pentazatricyclo[8.4.0.02,6]tetradeca-1(10),2(6),4,7,11,13-hexaen-13-y1]-2-(methoxymethyl)morpholine] | 1 to 100 nM | L (L (Low Cl)”: Hep Cl (mL/min/kg)<6.3) | L (L (Likely)”: ER≥2.5) | M (M (Moderate permeability)”: 1≤A2B (B2A)≤5) | H (H (High permeability)”: A2B (B2A)>5)
3 | Cc1n[nH]c2c1N=C(c1c(F)cccc1F)Nc1cnc(N3CCC[C@H](C#N)C3)cc1-2 [Example 19, (3S)-1-[8-(2,6-difluorophenyl)-5-methyl-3,4,7,9,12-pentazatricyclo [8.4.0.02,6]tetradeca-1(10),2(6),4,7,11,13-hexaen-13-yl]piperidine-3-carbonitrile] | 1 to 100 nM | L (L (Low Cl)”: Hep Cl (mL/min/kg)<6.3) | L (L (Likely)”: ER≥2.5) | M (M (Moderate permeability)”: 1≤A2B (B2A)≤5) | H (H (High permeability)”: A2B (B2A)>5)
4 | OCc1ccc(F)c(C2=Nc3c(Cl)n[nH]c3-c3cc(N4CCOCC4)ncc3N2)c1F [Example 21, (3-(3-chloro-9-morpholino-1,6-dihydropyrazolo[4,3-d]pyrido[4,3-f][1,3]diazepin-5-yl)-2,4-difluorophenyl)methanol] | < 1 nM | L (L (Low Cl)”: Hep Cl (mL/min/kg)<6.3) | L (L (Likely)”: ER≥2.5) | L (L (Low permeability)”: A2B (B2A)<1) | H (H (High permeability)”: A2B (B2A)>5)
5 | OCc1cc(F)c(C2=Nc3c(Cl)n[nH]c3-c3cc(N4CCOCC4)ncc3N2)c(F)c1 [Example 22, (4-(3-chloro-9-morpholino-1,6-dihydropyrazolo[4,3-d]pyrido[4,3-f][1,3]diazepin-5-y1)-3,5-difluorophenyl)methanol] | < 1 nM | I (I (Intermediate Cl)”: 6.3≤Hep Cl (mL/min/kg)≤14.7) | L (L (Likely)”: ER≥2.5) | L (L (Low permeability)”: A2B (B2A)<1) | H (H (High permeability)”: A2B (B2A)>5)
6 | Fc1cccc(Cl)c1C1=Nc2c(Cl)n[nH]c2-c2cc(N3CCOCC3)ncc2N1 [Example 24, (4-[5-chloro-8-(2-chloro-6-fluoro-phenyl)-3,4,7,9,12-pentazatricyclo[8.4.0.02,6]tetradeca-1(10),2(6),4,7,11,13-hexaen-13-yl]morpholine)] | < 1 nM | I (I (Intermediate Cl)”: 6.3≤Hep Cl (mL/min/kg)≤14.7) | L (L (Likely)”: ER≥2.5) | M (M (Moderate permeability)”: 1≤A2B (B2A)≤5) | H (H (High permeability)”: A2B (B2A)>5)
7 | [2H]C1([2H])OC([2H])([2H])C([2H])([2H])N(c2cc3c(cn2)NC(c2c(F)cccc2F)=Nc2c(Cl)n[nH]c2-3)C1([2H])[2H] [Example 25, 4-[5-chloro-8-(2,6-difluorophenyl)-3,4,7,9,12-pentazatricyclo[8.4.0.02,6]tetradeca-1(10),2(6),4,7,11,13-hexaen-13-yl]-2,2,3,3,5,5,6,6-octadeuterio-morpholine] | < 1 nM | L (L (Low Cl)”: Hep Cl (mL/min/kg)<6.3) | L (L (Likely)”: ER≥2.5) | M (M (Moderate permeability)”: 1≤A2B (B2A)≤5) | H (H (High permeability)”: A2B (B2A)>5)
8 | Cc1n[nH]c2c1N=C(c1c(F)cccc1F)Nc1cnc(-c3cn[nH]c3)cc1-2 [Example 29, 8-(2,6-difluorophenyl)-5-methyl-13-(1H-pyrazol-4-y1)-3,4,7,9,12-pentazatricyclo[8.4.0.02,6]tetradeca-1(10),2(6),4,7,11,13-hexaene] | < 1 nM | L (L (Low Cl)”: Hep Cl (mL/min/kg)<6.3) | L (L (Likely)”: ER≥2.5) | L (L (Low permeability)”: A2B (B2A)<1) | H (H (High permeability)”: A2B (B2A)>5)
9 | Fc1cccc(F)c1C1=Nc2c(Cl)n[nH]c2-c2cc(-c3ccn(CC(F)F)n3)ncc2N1 [Example 30, (3-chloro-9-(1-(2,2-difluoroethyl)-1H-pyrazol-3-yl)-5-(2,6-difluorophenyl)-1,6-dihydropyrazolo[4,3-d]pyrido[4,3-f][1,3]diazepine)] | < 1 nM | I (I (Intermediate Cl)”: 6.3≤Hep Cl (mL/min/kg)≤14.7) | L (L (Likely)”: ER≥2.5) | M (M (Moderate permeability)”: 1≤A2B (B2A)≤5) | H (H (High permeability)”: A2B (B2A)>5)
